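Exposure lasted 48 hours, with cells grown in 96-well plates and compounds tested at five concentrations. Abbreviation: GI50, concentration required for 50% inhibition of growth.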 Active and inactive are the calls of the source. Cut-off read from the data, not from the text of the source: active = GI50 up to about 1.1 µM and inactive = higher.
Tests used:
Experiment in all cases: growth of human tumour cells (NCI), 48 h
DMS-114 = test system: DMS-114
DMS-273 = test system: DMS-273
M19-MEL = test system: M19-MEL
HOP-18 = test system: HOP-18
SNB-78 = test system: SNB-78
RXF 631 = test system: RXF 631
LXFL 529 = test system: LXFL 529
KM-20L2 = test system: KM-20L2
XF498 = test system: XF498

| SMILES | GI50 (DMS-114) | GI50 (DMS-273) | GI50 (M19-MEL) | GI50 (HOP-18) | GI50 (SNB-78) | GI50 (RXF 631) | GI50 (LXFL 529) | GI50 (KM-20L2) | GI50 (XF498) |
| --- | --- | --- | --- | --- | --- | --- | --- | --- | --- |
| CCOC(=O)/C(=C\c1ccccc1)C(=O)CCN1CCOCC1 | 4.92 µM (inactive) | 10.4 µM (inactive) | 3.62 µM (inactive) | 13.9 µM (inactive) | 11.6 µM (inactive) | 11.3 µM (inactive) | 1.84 µM (inactive) | 9.89 µM (inactive) |  |
| O=C1OC2CCCC[C@@H]2C2C[C@]34CCCCC3[C@@H](C(=O)O4)C12 (stereo not given in full) | > 100 µM (inactive) |  | > 100 µM (inactive) | > 100 µM (inactive) | > 100 µM (inactive) |  | > 100 µM (inactive) | > 100 µM (inactive) | > 100 µM (inactive) |
| CCCC(=O)c1ccc(=O)n(C)c1 | > 100 µM (inactive) | > 100 µM (inactive) | > 100 µM (inactive) |  |  | 88.3 µM (inactive) | > 100 µM (inactive) | > 100 µM (inactive) | > 100 µM (inactive) |
| CC(=O)OCC1OC(NC(=S)N/N=C2\CC(c3ccccc3)Oc3ccccc32)C(OC(C)=O)C(OC(C)=O)C1OC(C)=O (stereo not given) | > 100 µM (inactive) | 56.8 µM (inactive) | > 100 µM (inactive) | > 100 µM (inactive) | > 100 µM (inactive) | 32 µM (inactive) | > 100 µM (inactive) | > 100 µM (inactive) | > 100 µM (inactive) |
| Nc1ccccc1C(=O)CCC1C(=O)NC(=S)NC1=O | > 100 µM (inactive) | > 100 µM (inactive) | > 100 µM (inactive) | > 100 µM (inactive) |  | > 100 µM (inactive) | > 100 µM (inactive) | > 100 µM (inactive) |  |
| O=C(c1ccc(Cl)cc1)N(C(=S)N1CCN(c2ccccc2)CC1)c1ccccc1 |  | > 100 µM (inactive) | > 100 µM (inactive) | > 100 µM (inactive) | > 100 µM (inactive) |  | > 100 µM (inactive) | > 100 µM (inactive) |  |
| O=C(CC(=O)C(=O)CC(=O)OCc1ccccc1)OCc1ccccc1 | > 100 µM (inactive) |  | > 100 µM (inactive) |  |  |  | > 100 µM (inactive) | > 100 µM (inactive) |  |
| CC(Cl)(/C=C/Cl)C(Cl)/C=C/C(Cl)(CCl)CBr (stereo not given) | 1.96 µM (inactive) | 3.63 µM (inactive) | 3.12 µM (inactive) | 2.52 µM (inactive) | 1.75 µM (inactive) | 1.91 µM (inactive) | 1.22 µM (inactive) | 5.22 µM (inactive) |  |
| O=c1oc2ccccc2c(O)c1C(C/C(CCN1CCCC1)=N/O)c1ccccc1 (stereo not given) | > 100 µM (inactive) |  | > 100 µM (inactive) |  |  | > 100 µM (inactive) | > 100 µM (inactive) | > 100 µM (inactive) | > 100 µM (inactive) |
| O=C(CC(=O)N1N=C(N2c3ccccc3Sc3ccccc32)CC1c1ccccc1)Nc1ccc(Cl)cc1 (stereo not given) | > 100 µM (inactive) | > 100 µM (inactive) | > 100 µM (inactive) | > 100 µM (inactive) | > 100 µM (inactive) |  | > 100 µM (inactive) | > 100 µM (inactive) | > 100 µM (inactive) |
| COc1ccc2c3c(c(C(=O)O)oc13)CCC2 | > 100 µM (inactive) | > 100 µM (inactive) | > 100 µM (inactive) |  | > 100 µM (inactive) |  | > 100 µM (inactive) |  | > 100 µM (inactive) |
| CCCS(=O)(=O)/C(=C(\c1ccc(Br)cc1)S(=O)(=O)CCC)c1ccc(Br)cc1 |  | > 10 µM (inactive) | > 10 µM (inactive) | > 10 µM (inactive) | > 10 µM (inactive) |  | > 10 µM (inactive) | > 10 µM (inactive) | > 10 µM (inactive) |
| O=C(Nc1nc2ncn(CC(COc3ccccc3)OC(=O)c3ccccc3)c2c(=O)[nH]1)c1ccccc1 (stereo not given) | > 100 µM (inactive) | > 100 µM (inactive) | > 100 µM (inactive) |  |  | > 100 µM (inactive) |  | > 100 µM (inactive) | > 100 µM (inactive) |
| CCOC(=O)C1=C(C)N(Cc2ccccc2)C(C)=C(C(=O)OCC)C1c1ccccc1O | 17.9 µM (inactive) | 32.7 µM (inactive) | 27.4 µM (inactive) | 44.2 µM (inactive) |  | 22.5 µM (inactive) | 26.5 µM (inactive) | 41 µM (inactive) | 21.5 µM (inactive) |
| O=C1c2ccccc2C2(Br)C(=O)c3ccccc3C12 (stereo not given) | > 100 µM (inactive) | 19.6 µM (inactive) | > 100 µM (inactive) | > 100 µM (inactive) |  | 10.4 µM (inactive) | > 100 µM (inactive) | > 100 µM (inactive) |  |
| COc1cc(C(=O)C/C(CCC(=O)Nc2ccccc2[N+](=O)[O-])=N\NC(=O)CC#N)ccc1O |  | > 100 µM (inactive) | > 100 µM (inactive) | > 100 µM (inactive) |  | > 100 µM (inactive) | > 100 µM (inactive) | > 100 µM (inactive) | > 100 µM (inactive) |
| c1ccc2c(c1)oc1ccc3nsnc3c12 | > 100 µM (inactive) | > 100 µM (inactive) | > 100 µM (inactive) | > 100 µM (inactive) |  | 46.9 µM (inactive) | > 100 µM (inactive) | > 100 µM (inactive) |  |
| CCN(CC)CCNc1ccc2ncn3c4ccc(OC)cc4c(=O)c1c23 | 11.5 µM (inactive) | 1.67 µM (inactive) | 3.73 µM (inactive) | 17 µM (inactive) | 14 µM (inactive) | 1.61 µM (inactive) | 2.46 µM (inactive) | 0.964 µM (active) | 5.02 µM (inactive) |
| O=C1CC(C[C@H](O)C2CCCCC2O)CC(=O)N1Cc1ccccc1 (stereo not given in full) |  | > 100 µM (inactive) | > 100 µM (inactive) | > 100 µM (inactive) | > 100 µM (inactive) | > 100 µM (inactive) | > 100 µM (inactive) | > 100 µM (inactive) | > 100 µM (inactive) |
| C[N+]1(C)C/C(=C\c2ccccc2)C(=O)/C(=C/c2ccccc2)C1 | 39.5 µM (inactive) | 37.5 µM (inactive) | 32.7 µM (inactive) | > 100 µM (inactive) | > 100 µM (inactive) | > 100 µM (inactive) | 70.1 µM (inactive) | > 100 µM (inactive) | > 100 µM (inactive) |
| COC(=O)C1(C(C)C)CCc2c(OC)ccc(OC)c2C1=O (stereo not given) | > 100 µM (inactive) |  | > 100 µM (inactive) | > 100 µM (inactive) | > 100 µM (inactive) |  | > 100 µM (inactive) | > 100 µM (inactive) | > 100 µM (inactive) |
| NCCNCCNCc1c2ccccc2c(CNCCNCCN)c2ccccc12 | 46.9 µM (inactive) |  | 59 µM (inactive) | 49.8 µM (inactive) | 98.6 µM (inactive) |  | 57.8 µM (inactive) | 41.4 µM (inactive) | 72.9 µM (inactive) |
| O=C1C(Cl)=C(N2CCN(CCOCCO)CC2)C(=O)c2ccccc21 |  | 16.9 µM (inactive) | 3.82 µM (inactive) | 16.3 µM (inactive) | 15.3 µM (inactive) |  | 1.79 µM (inactive) | 18 µM (inactive) | 2.55 µM (inactive) |
| c1ccc(C2CC(c3ccc4ccccc4c3)=Nc3ccccc3S2)cc1 (stereo not given) |  | 21.3 µM (inactive) | 18.7 µM (inactive) | 19.4 µM (inactive) | 18.6 µM (inactive) | 24.3 µM (inactive) | 14.5 µM (inactive) | 18.3 µM (inactive) | 17.4 µM (inactive) |
| CN(C)CCNC(=O)c1cccc2nc3ccc4ccccc4c3nc12 | 0.121 µM (active) | 0.0362 µM (active) | 0.0946 µM (active) | 0.197 µM (active) | 0.138 µM (active) | 0.0405 µM (active) |  |  |  |
| CC(=O)O/C(C)=C\C(=O)O/N=C(\N)c1ccc(C)cc1 | 18.8 µM (inactive) | 28.4 µM (inactive) |  | 26.2 µM (inactive) | 21.1 µM (inactive) | 22.5 µM (inactive) | 19.5 µM (inactive) | 33.7 µM (inactive) | 23.9 µM (inactive) |
| CSC1(C)CC2C(CC1N1CCCCC1)C2(C)C (stereo not given) |  | > 100 µM (inactive) | > 100 µM (inactive) | > 100 µM (inactive) | > 100 µM (inactive) |  | > 100 µM (inactive) |  | > 100 µM (inactive) |
| CSc1ccc2c(cc1=O)C(NC(=O)c1cc(O)c(OC(=O)O)c(O)c1)CCc1cc(O)c(O)c(O)c1-2 (stereo not given) | 15.2 µM (inactive) | 17 µM (inactive) | 13.6 µM (inactive) | > 89.9 µM (inactive) | 33.3 µM (inactive) |  | 16.5 µM (inactive) | 24.9 µM (inactive) |  |
